This is an account of results in patent publication US10450297B2, “Sulfonyl amide derivatives for the treatment of abnormal cell growth” (Pfizer, Inc., priority 2007, dated 2019).

The structures appear in SMILES notation.

For the assay, the target named is FAK kinase (catalytic construct FAK(410-689)) (Homo sapiens (Human), UniProt Q05397). As to the kind of experiment: FAKcd kinase ELISA (inhibition of poly-glu-tyr phosphorylation by FAK(410-689)). Conditions: 50 μM final ATP. The assay is classed as biochemical.
Chain of FAK kinase (catalytic construct FAK(410-689)) (Q05397 410-689): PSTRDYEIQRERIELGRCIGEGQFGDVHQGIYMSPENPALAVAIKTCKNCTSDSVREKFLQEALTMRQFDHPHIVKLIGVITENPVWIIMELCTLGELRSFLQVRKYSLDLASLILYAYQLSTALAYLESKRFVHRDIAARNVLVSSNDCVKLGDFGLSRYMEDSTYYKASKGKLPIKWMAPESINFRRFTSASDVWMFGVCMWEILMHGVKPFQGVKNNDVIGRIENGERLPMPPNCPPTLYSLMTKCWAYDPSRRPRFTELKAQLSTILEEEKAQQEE
On to `CN(c1ncccc1CNc1nc(Nc2ccc(CNC(CO)CO)cc2)ncc1C(F)(F)F)S(C)(=O)=O` [Example 8, N-(3-((2-(4-((1,3-dihydroxypropan-2-ylamino)methyl)phenylamino)-5-(trifluoromethyl)pyrimidin-4-ylamino)methyl)pyridin-2-yl)-N-methylmethanesulfonamide], for which the IC50 (in general, the concentration needed to halve the response being measured) is less than 0.595 nM.
`CN(c1ncccc1CNc1nc(Nc2ccc(C(=O)N3CC[C@H](F)C3)cc2)ncc1C(F)(F)F)S(C)(=O)=O` [Compound 236, N-{3-[({2-[(4-{[(3S)-3-fluoropyrrolidin-1-yl]carbonyl}phenyl)amino]-5-(trifluoromethyl)pyrimidin-4-yl}amino)methyl]pyridin-2-yl}-N-methylmethane-sulfonamide] had an IC50 of 1.41 nM.
On to `CCNC(=O)c1ccc(Nc2ncc(C(F)(F)F)c(NCc3cccc(S(C)(=O)=O)c3)n2)cc1` [Compound 77, N-ethyl-4-{[4-{[3-(methylsulfonyl)benzyl]amino}-5-(trifluoromethyl)pyrimidin-2-yl]amino}benzamide], for which the IC50 came out at 0.6 nM.
With `CN(c1ncccc1CNc1nc(Nc2cccc(C(=O)N3CCC3)c2)ncc1C(F)(F)F)S(C)(=O)=O` [Compound 125, N-[3-({[2-{[3-(azetidin-1-ylcarbonyl)phenyl]amino}-5-(trifluoromethyl)pyrimldin-4-yl]amino}methyl)pyridin-2-yl]-N-methylmethanesulfon-amide] the figure was 1.27 nM.
With `Cc1cc(Nc2ncc(C(F)(F)F)c(NCc3ncccc3N(C)S(C)(=O)=O)n2)ccc1C(N)=O` [Compound 336, 2-methyl-4-({4-[({3-[methyl(methylsulfonyl)amino]pyridin-2-yl}methyl)amino]-5-(trifluoromethyl)pyrimidin-2-yl)amino)benzamide] the figure was less than 0.595 nM; with `CN1CCN(C(=O)c2cccc(Nc3ncc(C(F)(F)F)c(NCc4cccnc4N(C)S(C)(=O)=O)n3)c2)CC1` [Compound 199, N-methyl-N-[3-({[2-({3-[(4-methylpiperazin-1-yl)carbonyl]phenyl}amino)-5-(trifluoromethyl)pyrimidin-4-yl]amino}methyl)pyridin-2-yl]methanesulfonamide], 2.56 nM; with `CN(c1cccc(CNc2nc(Nc3ccc(F)c(C(N)=O)c3)ncc2C(F)(F)F)c1)S(C)(=O)=O` [Compound 379, 2-fluoro-5-{[4-({3-[methyl(methylsulfonyl)amino]benzyl}amino)-5-(trifluoromethyl)pyrimidin-2-yl]amino}benzamide], 4.78 nM.
Next, `CN(C)CCNC(=O)c1ccc(Nc2ncc(C(F)(F)F)c(NCc3cccnc3N(C)S(C)(=O)=O)n2)cc1` [Compound 251, N-[2-(dimethylamino)ethyl]-4-({4-[({2-[methyl(methylsulfonyl)amino]pyridin-3-yl}methyl)amino]-5-(trifluoromethyl)pyrimidin-2-yl}amino)benzamide]: 1.21 nM; `CN(c1ncccc1CNc1nc(Nc2ccc(C#N)cc2)ncc1C(F)(F)F)S(C)(=O)=O` [Compound 95, N-{3-[({2-[(4-cyanophenyl)amino]-5-(trifluoromethyl)pyrimidin-4-yl}amino)methyl]pyridin-2-yl}-N-methylmethane-sulfonamide]: 0.6 nM; `Cc1cc(C(N)=O)ccc1Nc1ncc(C(F)(F)F)c(NCc2cc(N(C)S(C)(=O)=O)ccn2)n1` [Compound 405, 3-methyl-4-({4-[({4-[methyl(methylsulfonyl)amino]pyridin-2-yl}methyl)amino]-5-(trifluoromethyl)pyrimidin-2-yl}amino)benzamide]: 17.3 nM.
Consider `CC(C)NCc1ccc(Nc2ncc(C(F)(F)F)c(NCc3cccnc3N(C)S(C)(=O)=O)n2)cc1` [Compound 384, N-[3-({[2-({4-[(isopropylamino)methyl]phenyl}amino)-5-(trifluoromethyl)pyrimidin-4-yl]amino}methyl)pyridin-2-yl]-N-methylmethane-sulfonamide], for which the IC50 was less than 0.595 nM.
With `CC(=O)NCCNC(=O)c1cccc(Nc2ncc(C(F)(F)F)c(NCc3cccnc3N(C)S(C)(=O)=O)n2)c1` [Compound 167, N-[2-(acetylamino)ethyl]-3-({4-[({2-[methyl(methylsulfonyl)amino]pyridin-3-yl}methyl)amino]-5-(trifluoromethyl)pyrimidin-2-yl}amino)benzamide] the figure was 3.44 nM; with `CN(c1ncccc1CNc1nc(Nc2cccc(C(=O)N3CC[C@@H](O)C3)c2)ncc1C(F)(F)F)S(C)(=O)=O` [Compound 175, N-{3-[({2-[(3-{[(3R)-3-hydroxypyrrolidin-1-yl]carbonyl}phenyl)amino]-5-(trifluoromethyl)pyrimidin-4-yl}amino)methyl]pyridin-2-yl}-N-methyl-methanesulfonamide], 4.08 nM.
With `CN(c1ncccc1CNc1nc(Nc2cccc(CO)c2)ncc1C(F)(F)F)S(C)(=O)=O` [Compound 283, N-[3-({[2-{[3-(hydroxymethyl)phenyl]amino}-5-(trifluoromethyl)pyrimidin-4-yl]amino}methyl)pyridin-2-yl)-N-methylmethane-sulfonamide] the figure was 0.6 nM; with `CN(c1ncccc1CNc1nc(Nc2ccc(C(N)=O)nc2)ncc1C(F)(F)F)S(C)(=O)=O` [Compound 372, 5-({4-[({2-[methyl(methylsulfonyl)amino]pyridin-3-yl}methyl)amino]-5-(trifluoromethyl)pyrimidin-2-yl}amino)pyridine-2-carboxamide], 4 nM.
With `CN(c1nccnc1CNc1nc(Nc2ccc(C(N)=O)c(Cl)c2)ncc1C(F)(F)F)S(C)(=O)=O` [Compound 360, 2-chloro-4-({4-[({3-[methyl(methylsulfonyl)amino]pyrazin-2-yl}methyl)amino]-5-(trifluoromethyl)pyrimidin-2-yl}amino)benzamide] the figure was less than 0.595 nM; with `CN(c1ncccc1CNc1nc(Nc2ccc(N3CCOCC3)cn2)ncc1C(F)(F)F)S(C)(=O)=O` [Compound 293, N-methyl-N-{3-[({2-[(5-morpholin-4-ylpyridin-2-yl)amino]-5-(trifluoromethyl)pyrimidin-4-yl}amino)methyl]pyridin-2-yl]methanesulfonamide], less than 0.595 nM; with `CC(=O)Nc1cccc(Nc2ncc(C(F)(F)F)c(NCc3cccnc3N(C)S(C)(=O)=O)n2)c1` [Compound 366, N-[3-({4-[({2-[methyl(methylsulfonyl)amino]pyridin-3-yl}methyl)amino]-5-(trifluoromethyl)pyrimidin-2-yl}amino)phenyl]acetamide], less than 0.595 nM.
`CN(C)C(=O)c1ccc(Nc2ncc(C(F)(F)F)c(NCc3cccc(N(C)S(C)(=O)=O)c3)n2)cc1` [Compound 228, N, N-dimethyl-4-{[4-({3-[methyl(methylsulfonyl)amino]benzyl}amino)-5-(trifluoromethyl)pyrimidin-2-yl]amino}benzamide] yielded an IC50 of 2.19 nM.
Next, `COC(=O)c1ccc(Nc2ncc(C(F)(F)F)c(NCc3cccc(N(C(F)F)S(C)(=O)=O)c3)n2)cc1` [Compound 321, 4-{[4-({3-[(difluoromethyl)(methyl-sulfonyl)amino]benzyl}amino)-5-(trifluoromethyl)pyrimidin-2-yl]amino}benzoate]: 119 nM; `CN(c1ncccc1CNc1nc(Nc2cccc(C(=O)NC(C)(C)CO)c2)ncc1C(F)(F)F)S(C)(=O)=O` [Compound 201, N-(2-hydroxy-1,1-dimethylethyl)-3-({4-[({2-[methyl(methylsulfonyl)amino]pyridin-3-yl}methyl)amino]-5-(trifluoromethyl)pyrimidin-2-yl}amino)benzamide]: 1.64 nM.
Next, `COCCCN(C)C(=O)c1ccc(Nc2ncc(C(F)(F)F)c(NCc3cccnc3N(C)S(C)(=O)=O)n2)cc1` [Compound 277, N-(3-methoxypropyl)-N-methyl-4-({4-[({2-[methyl(methylsulfonyl)amino]pyridin-3-yl}methyl)arnino]-5-(trifluoromethyl)pyrimidin-2-yl}amino)benzamide]: 2.36 nM.
In turn, `CN(c1ncccc1CNc1nc(Nc2ccc(C#N)nc2)ncc1C(F)(F)F)S(C)(=O)=O` [Compound 292, N-{3-[({2-[(6-cyanopyridin-3-yl)amino]-5-(trifluoromethyl)pyrimidin-4-yl}amino)methyl]pyridin-2-yl}-N-methylmethane-sulfonamide] yielded an IC50 of 23.3 nM.
With `C[C@H]1COCCN1C(=O)c1cccc(Nc2ncc(C(F)(F)F)c(NCc3cccnc3N(C)S(C)(=O)=O)n2)c1` [Compound 143, N-methyl-N-{3-[({2-[(3-{[(3S)-3-methylmorpholin-4-yl]carbonyl}phenyl)amino]-5-(trifluoromethyl)pyrimidin-4-yl}amino)methyl]pyridin-2-yl}methanesulfonamide] the figure was 2.4 nM; with `CN(c1ncccc1CNc1nc(Nc2cccc(C(=O)N3CC[C@H](O)C3)c2)ncc1C(F)(F)F)S(C)(=O)=O` [Compound 157, N-{3-[({2-[(3-{[(3S)-3-hydroxypyrrolidin-1-yl]carbonyl}phenyl)amino]-5-(trifluoromethyl)pyrimidin-4-yl}amino)methyl]pyridin-2-yl}-N-methylmethane-sulfonamide], 4.24 nM.
Next, `CN(c1ncccc1CNc1nc(Nc2cccc(C(=O)N3CCC[C@H](O)C3)c2)ncc1C(F)(F)F)S(C)(=O)=O` [Compound 159, N-{3-[({2-[(3-{[(3S)-3-hydroxypiperidin-1-yl]carbonyl}phenyl)amino]-5-(trifluoromethyl)pyrimidin-4-yl}amino)methyl]pyridin-2-yl}-N-methylmethane-sulfonamide]: 6.14 nM; `CC(C)OCc1ccc(Nc2ncc(C(F)(F)F)c(NCc3cccnc3N(C)S(C)(=O)=O)n2)cc1` [Compound 347, N-[3-({{2-{[4-(isopropoxymethyl)phenyl]amino}-5-(trifluoromethyl)pyrimidin-4-yl]amino}methyl)pyridin-2-yl]-N-methylmethane-sulfonamide]: 2.15 nM; `Cc1cnccc1Nc1ncc(C(F)(F)F)c(NCc2cccnc2N(C)S(C)(=O)=O)n1` [Compound 94, N-methyl-N-{3-[({2-[(3-methylpyridin-4-yl)amino]-5-(trifluoromethyl)pyrimidin-4-yl)amino)methyl]pyridin-2-yl]methanesulfonamide]: 8.01 nM.
